Laboratory results reported in patent publication US3985758A, “1,4-Dihydropyridine derivatives” (Yamanouchi Pharmaceutical Co., Ltd., priority 1973, dated 1976).
Converted amounts (≈) assume the structure as drawn. Where a name gives a salt, the structure may show the parent alone. Read-outs that look alike come from different tables or passages of the source.

What was measured:
guinea-pig ileum = test: Spasmolytic activity in isolated guinea-pig ileum (Magnus apparatus); conditions: Cavia porcellus, ±S.E.
Method: Methods: Isolated guinea-pig ileum was suspended in Tyrodes solution by use of Magnus apparatus and the movements of the muscle were recorded in a kymograph by an isotonic lever.

vertebral artery = test: Direct vasodilating effect on vertebral artery, constant volume perfusion; format: in vivo, mongrel dog; conditions: intra-arterial; for Selectivity ratio (ED50 in femoral artery/ED50 in vertebral artery): anesthetized dogs; for Vasodilation ED50, vertebral artery: ±SE, maximum response to papaverine 3000 μg i.a. = 100%
Text: (§1) Heparin (1000 μ/Kg, i.v.) was used as an anticoagulant. The methods for perfusion of each artery were as following: 1) For the vertebral artery, the arterial blood led from the left common carotid artery was collected by the tygon tubing and perfused by the Sigma-motor pump (Mippleport N.Y. T-8) into the right vertebral artery. 2) For the femoral artery, the arterial blood led from the proximal femoral artery was perfused by the Sigma-motor pump into the distal femoral artery. […] All drugs were given into a rubber tube connected close to the each arterial cannula by a microinjector (Jintan Terumo, NSN-100).

femoral artery = test: Direct vasodilating effect on femoral artery, constant volume perfusion; format: in vivo, mongrel dog; conditions: intra-arterial; ±SE; maximum response to papaverine 3000 μg i.a. = 100%
Text: For the analysis of the selective effect on vasculature by the drugs, direct effect on cerebral (vertebral artery) and peripheral (femoral artery) vascular bed were studied by the method of the constant volume perfusion.
as §1

[1] = tested on: vertebral and femoral blood flow; test: Vertebral and femoral blood flow in anesthetized dogs; format: in vivo, mongrel dog; conditions: 0.01 mg/kg i.v. (0.01 or 0.03 mg/kg); for Blood pressure change (Δ mmHg): femoral artery; for Separation ratio (percent increase of vertebral blood flow / that of femoral blood flow): significance vs SKF 24260
Method: Vertebral and femoral blood flow in anesthetized dogs.
Mongrel dogs of both sexes weighing from 12 to 27 kg were anesthetized with sodium pentobarbitol (30 mg/kg i.v.). In all experiments, trachea was cannulated and the animals were artificially ventilated with room air. Blood pressure in cannulated femoral artery was measured by means of a pressure transducer (Nihon Kohden, MPU 0.5). Vertebral and femoral blood flow were measured by a noncannulating electromagnetic flowmeter (Nihon Kohden, MF-25) positioned around the vessels. Recordings were made on an ink-writing polygraph (Nihon Kohden, RM-150 or RM-85). The test compounds were injected at a dose of 0.01 mg/kg into femoral vein.

[2] = cited from earlier work
in vivo [3] = conditions: mouse, in vivo, iv
Method: (§2) LD50 was determined by using mice.
(§3) 2. Acute toxicity in mice
(§4) Male ICR weighing 25 to 32 g were used. The test compounds were injected into tail vein and LD 50 values were determined.

[4] = Solubility in water at 25° C; format: physicochemical
[5] = cited from earlier work; remark: listed apart in the source
in vivo [6] = conditions: dog, iv
mice = test: in vivo; conditions: i.v.; mice
Method: as §2, §3, §4

[7] = read-out: Spasmolytic activity, 50% inhibition of contractile response, Acetylchloline 10^-7 g/ml
[8] = read-out: Spasmolytic activity, 50% inhibition of contractile response, BaCl2 2×10^-4 g/ml
[9] = read-out: Spasmolytic activity, 50% inhibition of contractile response, Histamine 10^-7 g/ml

| Compound | IC50 (guinea-pig ileum; [7]) [µg/mL] | IC50 (guinea-pig ileum; [8]) [µg/mL] | IC50 (guinea-pig ileum; [9]) [µg/mL] | Selectivity ratio (ED50 in femoral artery/ED50 in vertebral artery) (vertebral artery) | Vasodilation ED50, vertebral artery (vertebral artery) [µg] | Vasodilation ED50, femoral artery (femoral artery) [µg] | Femoral blood flow (FBF %) [1] [%] | Vertebral blood flow (VBF Δ %) [1] | Blood pressure change (Δ mmHg) [1] | Separation ratio (percent increase of vertebral blood flow / that of femoral blood flow) [1] | LD50 (in vivo [3]) [mg/kg] | Heart rate (Δbeats/min.±SE) (anesthetized dogs; 0.001 mg/Kg i.v.) | Mean blood pressure (ΔmmHg±SE) (anesthetized dogs; 0.001 mg/Kg i.v.) | Vertebral blood flow (Δ%±SE) (anesthetized dogs; 0.001 mg/Kg i.v.) | Heart rate (Δbeats/min.±SE) (anesthetized dogs; 0.003 mg/Kg i.v.) | Mean blood pressure (ΔmmHg±SE) (anesthetized dogs; 0.003 mg/Kg i.v.) | Vertebral blood flow (Δ%±SE) (anesthetized dogs; 0.003 mg/Kg i.v.) | Heart rate (Δbeats/min.±SE) (anesthetized dogs; 0.01 mg/Kg i.v.) | Mean blood pressure (ΔmmHg±SE) (anesthetized dogs; 0.01 mg/Kg i.v.) | Vertebral blood flow (Δ%±SE) (anesthetized dogs; 0.01 mg/Kg i.v.) | also measured |
| --- | --- | --- | --- | --- | --- | --- | --- | --- | --- | --- | --- | --- | --- | --- | --- | --- | --- | --- | --- | --- | --- |
| COc1ccc(Cc2nccc3cc(OC)c(OC)cc23)cc1OC [Papaverine] | 11 (≈ 32.4 µM) | 7.2 (≈ 21.2 µM) | 7 (≈ 20.6 µM) | 0.67 | 72.8 ± 8.71 | 48.8 ± 3.73 |  |  |  |  |  |  |  |  |  |  |  |  |  |  | Heart rate (Δbeats/min.±SE) (anesthetized dogs; 0.1 mg/Kg i.v.): 8±1.5 Δbeats/min.; Mean blood pressure (ΔmmHg±SE) (anesthetized dogs; 0.1 mg/Kg i.v.): -9±1.1 ΔmmHg; Vertebral blood flow (Δ%±SE) (anesthetized dogs; 0.1 mg/Kg i.v.): 22±3.4 Δ%; Heart rate (Δbeats/min.±SE) (anesthetized dogs; 0.3 mg/Kg i.v.): 22±3.5 Δbeats/min.; Mean blood pressure (ΔmmHg±SE) (anesthetized dogs; 0.3 mg/Kg i.v.): -21±2.8 ΔmmHg; Vertebral blood flow (Δ%±SE) (anesthetized dogs; 0.3 mg/Kg i.v.): 67±7.1 Δ%; Heart rate (Δbeats/min.±SE) (anesthetized dogs; 1.0 mg/Kg i.v.): 44±4.8 Δbeats/min.; Mean blood pressure (ΔmmHg±SE) (anesthetized dogs; 1.0 mg/Kg i.v.): -32±3.5 ΔmmHg; Vertebral blood flow (Δ%±SE) (anesthetized dogs; 1.0 mg/Kg i.v.): 124±13.8 Δ% |
| CCOC(=O)C1=C(C)NC(C)=C(C(=O)OCC)C1c1ccccc1C(F)(F)F [SKF 24260, 3,5-dicarbethoxy-1,4-dihydro-2,6-dimethyl-4-(2-trifluoromethylphenyl) pyridine, reference compound] |  |  |  |  |  |  | 165 ± 40 | 144 ± 17.7 Δ % | -44 ± 4.8 Δ mmHg | 0.93 ± 0.11 | 0.8 |  |  |  |  |  |  |  |  |  | Hypotensive activity ([2]; U.S. Pat. No. 3,511,837): shows hypotensive activity; pH (of solubility determination) ([4]; known compounds, 25° C): 5.40; solubility ([4]; known compounds, 25° C, at the given pH, read-out: Solubility): 10 µg/mL (≈ 25.2 µM); solubility ([4]; known compounds, pH 4.00, 25° C, read-out: Solubility at pH 4.00): 10 µg/mL (≈ 25.2 µM); Water-solubility (in words) [5]: very poorly water-soluble |
| COC(=O)C1=C(C)NC(C)=C(C(=O)OC)C1c1ccccc1[N+](=O)[O-] [Nifedipine, 4-(2'-nitrophenyl)-2,6-dimethyl-1,4-dihydropyridine-3,5-dicarboxylic acid dimethyl ester] |  |  |  |  | 0.74 ± 0.15 | 0.37 ± 0.11 | 109 ± 34.1 | 135 ± 28.8 Δ % | -39 ± 3.2 Δ mmHg |  |  | 10±3.5 Δbeats/min. | -10±1.6 ΔmmHg | 47±13.5 Δ% | 18±3.2 Δbeats/min. | -24±5.9 ΔmmHg | 104±25.8 Δ% | 17±4.0 Δbeats/min. | -39±3.2 ΔmmHg | 135±28.8 Δ% | Coronary vasodilator activity and spasmolytic activity ([2]; Naturwissenschaften 58, (11)578(1971)): much excellent coronary vasodilator activity and spasmolytic activity |
| COC(=O)C1=C(C)NC(C)=C(C(=O)OCCN(C)Cc2ccccc2)C1c1cccc([N+](=O)[O-])c1 (stereo not drawn) [Example 2, 2,6-dimethyl-4-(3'-nitrophenyl)-1,4-dihydropyridine-3,5-dicarboxylic acid 3-β-(N-benzyl-N-methylamino)ethyl ester 5-methyl ester hydrochloride] | 0.0052 | 0.0019 | 0.0018 | 1.30 | 0.66 ± 0.20 | 0.86 ± 0.11 | 51 ± 5.8 | 200 ± 27.3 Δ % | -29 ± 3.6 Δ mmHg | 4.19 ± 0.69 | 20.7 | 12±2.2 Δbeats/min. | -7±1.5 ΔmmHg | 61±9.5 Δ% | 18±2.0 Δbeats/min. | -14±2.2 ΔmmHg | 132±13.8 Δ% | 25±5.3 Δbeats/min. | -29±3.6 ΔmmHg | 200±27.3 Δ% | LD50 (in vivo [6]): 6.1 mg/kg; Heart rate (Δbeats/min.±SE) (anesthetized dogs; 0.0003 mg/Kg i.v.): 4±1.3 Δbeats/min.; Mean blood pressure (ΔmmHg±SE) (anesthetized dogs; 0.0003 mg/Kg i.v.): -1±0.6 ΔmmHg; Vertebral blood flow (Δ%±SE) (anesthetized dogs; 0.0003 mg/Kg i.v.): 27±4.4 Δ%; LD50 (mice): 20.7 mg/kg; pH (of solubility determination) ([4]; compounds of the present invention, 25° C): 3.92; solubility ([4]; compounds of the present invention, 25° C, at the given pH, read-out: Solubility): 4900 µg/mL |
